Laboratory results reported in US20070155771A1, “Methods and means for treating protein conformational disorders” (priority 2003, published 2007).

Legend:
[1] = test system: COS-7 cells expressing EGFP tagged wild-type HD exon 1 protein with 23 glutamine repeats, EGFP-polyalanine with 7 repeats or empty EGFP; experiment: Control constructs (Q23, A7, empty EGFP) in transiently transfected COS-7 cells; assay type: cell-based, African green monkey; details: 10 mM 3-MA
Description: African green monkey kidney cells (COS-7) were grown in Dulbecco's Modified Eagle Medium (DMEM, Sigma) supplemented with 10% Fetal Bovine Serum (FBS), 100 U/ml Penicillin/Streptomycin, 2 mM L-Glutamine and 1 mM Sodium Pyruvate at 37° C., 5% Carbon dioxide. The cells were grown on coverslips in six-well plates for immunofluorescence analysis, or were directly grown in six-well plates to 60-80% confluency for 24 hours for western blot analysis. Transfection was done using LipofectAMINE reagent (Invitrogen) using the manufacturer's protocol. The transfection mixture was replaced by normal culture medium after 5 hours incubation at 37° C. and the transfected cells were analysed by immunofluorescence or immunoblot 48 hours after transfection. […] Equal amounts of water or DMSO were added to the untreated controls, where relevant. The cells on coverslips were rinsed with 1×PBS, fixed with 4% paraformaldehyde in 1×PBS for 20 min and mounted in […] supplemented with 4',6-diamidino-2-phenylindole (DAPI, 3 μg/ml, Sigma) to allow visualisation of nuclear morphology. […] Aggregate formation and nuclear morphology were assessed using a fluorescence microscope. 200 EGFP positive COS-7 cells were selected and the proportion of cells with aggregates was counted. […]

[2] = test system: Drosophila HD model expressing the first 171 residues of huntingtin with 120 glutamines (120Q) in photoreceptors; experiment: Drosophila HD model, pseudopupil analysis of photoreceptor neurodegeneration; assay type: in vivo
Description: A Drosophila line y; w; gmr-Q120 was crossed to w; iso2; iso3 to obtain progeny heterozygous for the transgene gmr-Q120. Flies were allowed to mate on normal food for 2-3 days and then transferred to food containing 1 μM rapamycin (Sigma) or DMSO. After eclosion, flies were placed on food containing 1 μM rapamycin or DMSO. Flies were transferred to newly prepared food every day.
Pseudopupil analysis: Adult male flies were decapitated and the head was mounted onto a microscope slide using nail polish. Analysis was performed with an optical microscope using a 60× objective with the observer blinded to the identity of the slides. Approximately 75 ommatidia were evaluated for each group (approx. 15 ommatidia in 5 individuals). Each experiment was done twice. The frequency of ommatidia with different numbers of visible rhabdomeres was based on all visible photoreceptor neurons, irrespective of their shape or brightness. Flies were raised at 25° C. with 12/12-h light/dark-cycle, 70% humidity.
A Drosophila HD model that expresses the first 171 residues of huntingtin with 120 glutamines (120Q) in photoreceptors (Jackson, G. R., et al. Neuron 21, 633-642 (1998)) was used to test whether long-term mTOR inhibition with rapamycin would have beneficial effects in vivo. The mutant flies show photoreceptor neurodegeneration, a phenotype that is easily quantifiable using the pseudopupil technique (Franceschini, N. & Kirschfeld K. Kybernetik 9, 159-182 (1971)). No degeneration is seen in flies expressing analogous constructs with 20Q (wild-type transgenics). The compound eye of Drosophila comprises many ommatidia. An ommatidium normally contains eight photoreceptor neurons with light gathering parts called rhabdomeres, seven of which can be easily visualized using the pseudopupil technique. The number of visible rhabdomeres in each ommatidium decreases as a function of time when there is photoreceptor neurodegeneration, like in the 120Q fly lines.

Compound	aggregate formation in cells expressing Q23 or A7 [1]	levels of empty EGFP [1]	120Q-induced photoreceptor degeneration ([2]; 1 μM rapamycin in food from larval stage into adulthood, vs DMSO)	number of visible rhabdomeres per ommatidium ([2]; 1 μM rapamycin in food, two and three days after eclosion, p<0.0001)	frequency of ommatidia with seven rhabdomeres ([2]; HD 120Q flies, 2 and 3 days post-eclosion)
Cn1cnc(N)c2ncnc1-2 [3-MA, 3-methyl adenine]	did not cause aggregate formation	did not cause any change			
rapamycin			dramatically rescued	significantly increased	dramatically increases
